Converted amounts (≈) assume the structure as drawn.
Assays:
Moraxella catarrhalis = assay: Antibacterial activity against Moraxella catarrhalis; type: functional
Mus musculus [1] = assay: Efficacy of compound to protect the methicillin resistant […] infected murine sc administration; type: functional
Staphylococcus aureus [2] = assay: Antibacterial activity against methicillin resistant Staphylococcus aureus (MRSA); type: functional
Enterococcus sp. = assay: Antibacterial activity against Enterococcus species; type: functional
Mus musculus [3] = assay: Efficacy of compound to protect the methicillin resistant Staphylococcus aureus infected murine po administration; type: functional
Streptococcus agalactiae = assay: Antibacterial activity against Streptococcus agalactiae; type: functional
Staphylococcus aureus [4] = assay: Antibacterial activity against methicillin susceptible Staphylococcus aureus (MSSA); type: functional
Streptococcus pneumoniae [5] = assay: Antibacterial activity against Streptococcus pneumoniae (PEN-R); type: functional
Haemophilus influenzae = assay: Antibacterial activity against […] influenzae; type: functional
[6] = tested on: Streptococcus pyogenes (Streptococcus pyogenes); assay: Antibacterial activity against Streptococcus pyogenes
Mus musculus [7] = assay: Efficacy of compound to protect the methicillin resistant Staphylococcus aureus infected murine iv administration; type: functional
Streptococcus pneumoniae [8] = assay: Antibacterial activity against Staphylococcus pneumoniae (PEN-R)

| Structure (SMILES) | MIC90 (Moraxella catarrhalis) [µg/mL] | ED50 (Mus musculus [1]) [mg/kg] | MIC90 (Staphylococcus aureus [2]) [µg/mL] | MIC90 (Enterococcus sp.) [µg/mL] | ED50 (Mus musculus [3]) [mg/kg] | MIC90 (Streptococcus agalactiae) [µg/mL] | MIC90 (Staphylococcus aureus [4]) [µg/mL] | MIC90 (Streptococcus pneumoniae [5]) [µg/mL] | MIC90 (Haemophilus influenzae) [µg/mL] | MIC90 [6] [µg/mL] | ED50 (Mus musculus [7]) [mg/kg] | MIC90 (Streptococcus pneumoniae [8]) [µg/mL] |
| --- | --- | --- | --- | --- | --- | --- | --- | --- | --- | --- | --- | --- |
| COc1cc(Cc2cnc(N)nc2N)c2c(c1OC)OC(C1CC1)C=C2 (configuration not stated) | 4 (≈ 11.3 µM) | 20 | 0.06 (≈ 0.169 µM) | 0.12 (≈ 0.339 µM) | 17 | 0.5 (≈ 1.41 µM) | 0.06 (≈ 0.169 µM) | 4 (≈ 11.3 µM) | 0.5 (≈ 1.41 µM) | 0.03 (≈ 0.0846 µM) | 4.3 | – |
| CN[C@H](CC(C)C)C(=O)N[C@H]1C(=O)N[C@@H](CC(N)=O)C(=O)N[C@H]2C(=O)N[C@H]3C(=O)N[C@H](C(=O)N[C@H](C(=O)O)c4cc(O)cc(O)c4-c4cc3ccc4O)[C@H](O)c3ccc(c(Cl)c3)Oc3cc2cc(c3O[C@@H]2O[C@H](CO)[C@@H](O)[C@H](O)[C@H]2O[C@H]2C[C@](C)(N)[C@H](O)[C@H](C)O2)Oc2ccc(cc2Cl)[C@H]1O [VANCOMYCIN] | 64 (≈ 44.2 µM) | – | 1 (≈ 0.69 µM) | 2 (≈ 1.38 µM) | – | 0.5 (≈ 0.345 µM) | 1 (≈ 0.69 µM) | 1 (≈ 0.69 µM) | 128 (≈ 88.3 µM) | 1 (≈ 0.69 µM) | – | – |
| CC(=O)NC[C@H]1CN(c2ccc(N3CCOCC3)c(F)c2)C(=O)O1 [LINEZOLID] | 8 (≈ 23.7 µM) | – | 8 (≈ 23.7 µM) | 4 (≈ 11.9 µM) | – | 2 (≈ 5.93 µM) | 8 (≈ 23.7 µM) | 2 (≈ 5.93 µM) | 64 (≈ 190 µM) | 2 (≈ 5.93 µM) | – | – |
| COc1cc(Cc2cnc(N)nc2N)cc(OC)c1OC [TRIMETHOPRIM] | 128 (≈ 441 µM) | 60 | 8 (≈ 27.6 µM) | 8 (≈ 27.6 µM) | – | 128 (≈ 441 µM) | 16 (≈ 55.1 µM) | – | 1 (≈ 3.44 µM) | 64 (≈ 220 µM) | 15 | > 128 |

From ChEMBL document CHEMBL1136461 (Bioorg Med Chem Lett, 2003)
